Assay results: patent US20220409727A1, “Metal Complexes Bearing Bisstyryl-Bipyridine Ligand and Their Use as Photosensitizer Agent in One and Two-Photon Photodynamic Therapy” (Paris Sciences et Lettres, priority 2019, published 2022)
Like-named read-outs stand apart in the source and are kept apart here.

Key:
[1] = Emission measurement in CH3CN; format: physicochemical; settings: room temperature, excitation at 355 nm
Description: The absorption of the samples was measured with a SpectraMax M2 Spectrometer (Molecular Devices). The emission was measured by irradiation of the sample in fluorescence quartz cuvettes (width 1 cm) using a NT342B Nd-YAG pumped optical parametric oscillator (Ekspla) at 355 nm. Luminescence was focused and collected at right angle to the excitation pathway and directed to a Princeton Instruments Acton SP-2300i monochromator. As a detector, a XPI-Max 4 CCD camera (Princeton Instruments) has been used.

[2] = Luminescence quantum yield measurements; format: physicochemical; set-up: key: fraction, relative to [Ru(bipy)3]Cl2 reference in CH3CN (Φem=5.9%); settings: CH3CN, room temperature, excitation at 355 nm
Description: For the determination of the luminescence quantum yield, the samples were prepared in an CH3CN solution with an absorbance of 0.1 at 355 nm. This solution was irradiated in fluorescence quartz cuvettes (width 1 cm) using a NT342B Nd-YAG pumped optical parametric oscillator (Ekspla) at 355 nm. The emission signal was focused and collected at right angle to the excitation pathway and directed to a Princeton Instruments Acton SP-2300i monochromator. As a detector a XPI-Max 4 CCD camera (Princeton Instruments) has been used. The luminescence quantum yields were determined by comparison with the reference [Ru(bipy)3]Cl2 in CH3CN (Φem=5.9%) (Nakamaru, K., 1982) applying the following formula:
Φem, sample=Φem, reference*(Freference/Fsample)*(Isample/Ireference)*(nsample/nreference)^2
Φem=luminescence quantum yield, F=fraction of light absorbed, I=integrated emission intensities, n=refractive index, A=absorbance of the sample at irradiation wavelength.

[3] = Singlet oxygen measurement, indirect evaluation (RNO absorbance); format: physicochemical; settings: indirect
Description: For the measurement in CH3CN: The samples were prepared in an air-saturated CH3CN solution containing the complex with an absorbance of 0.2 at the irradiation wavelength, N,N-dimethyl-4-nitrosoaniline aniline (RNO, 24 μM) and imidazole (12 mM). For the measurement in PBS buffer: The samples were prepared in an air-saturated PBS solution containing the complex with an absorbance of 0.1 at the irradiation wavelength, N,N-dimethyl-4-nitrosoaniline aniline (RNO, 20 μM) and histidine (10 mM). The samples were irradiated on 96 well plates with an Atlas Photonics LUMOS BIO irradiator for different times. The absorbance of the samples was measured during these time intervals with a SpectraMax M2 Microplate Reader (Molecular Devices). The difference in absorbance (A0−A) at 420 nm for the CH3CN solution or at 440 nm a PBS buffer solution was calculated and plotted against the irradiation times. From the plot the slope of the linear regression was calculated as well as the absorbance correction factor determined. The singlet oxygen quantum yields were calculated using the same formulas as used for the direct evaluation.

[4] = tested on: human cervical carcinoma (HeLa) cells; assay: (Photo-)cytotoxicity on 2D cell monolayers, resazurin assay, HeLa; format: cell-based; settings: for PI (480 nm): dark vs 480 nm (10 min, 3.1 J/cm^2); for PI (540 nm): dark vs 540 nm (40 min, 9.5 J/cm^2)
Text: Before an experiment, the cells were passaged three times.

HeLa MCTS = assay: (Photo-)cytotoxicity on 3D multicellular tumor spheroids (ATP, CellTiter-Glo 3D); format: cell-based, human; settings: for PI (1-Photon): dark vs 1-Photon irradiation (500 nm, 10 J/cm^2); for PI (2-Photon): dark vs 2-Photon irradiation (800 nm, 10 J/cm^2)
Description: autoclave. The hot emulsion was transferred into wells (50 μL per well) of a 96 cell culture well plate. The plates were exposed for 3 h to UV irradiation to ensure the sterility and allow the agarose solution to cool down. After this time, the agarose was overlayed with a HeLa cell suspension at a density of 3000 cells per well in 150 μL of media. The MCTS were cultivated and maintained at 37° C. in a cell culture incubator at 37° C. with 5% CO2 atmosphere. The culture media was replaced every two days. Within two-three days MCTs were formed from the cell suspension. The formation as well as integrity, diameter and volume of the MCTs was monitored by an Axio Observer Z1 (Carl Zeiss) phase contrast microscope. The volume was calculated using the following formula: V=4/3πr^3. The luminescence images along the z-axis were captured by a one-(λex=458 nm, λem=600-750 nm) or two-photon (λex=800 nm, λem=600-750 nm) excitation in the z-stack mode with a an LSM 880 (Carl Zeiss) laser scanning confocal microscope equipped with Argon and a Coherent Chameleon 2-Photon laser and a GaAsP detector.
The cytotoxicity of the compounds in 3D multicellular tumor spheroids (MCTS) was assessed by measurement of the ATP concentration. MCTS were treated with increasing concentrations of the compound (2% DMSO, v %) by replacing 50% of the media with drug supplemented media and incubation for 12 h. After this time, the MCTS were divided in three identical groups. The first group was strictly kept in the dark. The second group was exposed to a one-photon irradiation (500 nm, 10 J/cm^2) using a LED and the third group was exposed to a two-photon irradiation (800 nm, 10 J/cm^2) with a section interval of 5 μm using a LSM 880 (Carl Zeiss, Germany) laser scanning confocal microscope equipped with a Coherent Chameleon 2-Photon laser. After the irradiation, all groups were incubated additional 48 h. The ATP concertation was measured using a CellTiter-Glo 3D Cell Viability kit (Promega) by measuring the generated chemiluminescence with an infinite M200 PRO (Tecan) plate reader.

[5] = tested on: human glioblastoma astrocytoma (U373) cells; assay: (Photo-)cytotoxicity on 2D cell monolayers, resazurin assay, U373; settings: for PI (480 nm): U373, dark vs 480 nm (10 min, 3.1 J/cm^2); for PI (540 nm): U373, dark vs 540 nm (40 min, 9.5 J/cm^2); for IC50: compounds 1-3 as chloride salts
Description: The human glioblastoma astrocytoma (U373) cell line was cultured in MEM medium supplemented with 10% FBS, 1% NEAA (non-essential amino-acids) and 1% penicillin/streptomycin. […] The human retinal epithelial cells (RPE-1, non-cancerous cells immortalized with hTERT) were cultured in DMEM-F12 medium supplemented with 10% FBS and 1% penicillin/streptomycin. All cell lines were obtained from the American Type Culture Collection (ATCC) and cultured at 37° C. and 5% CO2. Before an experiment, the cells were passaged three times.
The cytotoxicity of the compounds was assessed by measuring cell viability using a fluorometric resazurin assay. The cultivated cells were seeded in triplicates in 96 well plates with a density of 4000 cells per well in 100 μL of media. After 24 h, the medium was removed and the cells were treated with increasing concentrations of the compound diluted in cell media achieving a total volume of 200 μL. The cells were incubated with the compound for 4 h. After this time, the media was removed and replaced with 200 μL of fresh medium. For the phototoxicity studies, the cells were exposed to light with an Atlas Photonics LUMOS BIO irradiator. Each well was constantly illuminated with either a 480 nm or 540 nm irradiation. During this time, the temperature was maintained constantly at 37° C. The cells were grown in the incubator for additional 44 h. For the determination of the dark cytotoxicity, the cells were not irradiated and after the medium exchange directly incubated for 44 h. After this time, the medium was replaced with fresh medium containing resazurin with a final concentration of 0.2 mg/mL. After 4 h incubation, the amount of the fluorescent product resorufin was determined upon excitation at 540 nm and measurement its emission at 590 nm using a SpectraMax M2 Microplate Reader (Molecular Devices).
The obtained data was analyzed with the GraphPad Prism software.

[6] = tested on: mouse colon carcinoma (CT-26) cells; assay: (Photo-)cytotoxicity on 2D cell monolayers, resazurin assay, CT-26; settings: for PI (480 nm): CT-26, dark vs 480 nm (10 min, 3.1 J/cm^2); for PI (540 nm): CT-26, dark vs 540 nm (40 min, 9.5 J/cm^2); for IC50: compounds 1-3 as chloride salts
[7] = dark, 4 h incubation, compounds 1-3 as chloride salts, read-out: IC50 dark
[8] = read-out: IC50 480 nm (10 min, 3.1 J/cm^2), irradiation 480 nm (10 min, 3.1 J/cm^2), compounds 1-3 as chloride salts
[9] = read-out: IC50 540 nm (40 min, 9.5 J/cm^2), irradiation 540 nm (40 min, 9.5 J/cm^2), compounds 1-3 as chloride salts
[10] = 1-Photon irradiation (500 nm, 10 J/cm^2), read-out: IC50 1-Photon irradiation (500 nm, 10 J/cm^2)
[11] = 2-Photon irradiation (800 nm, 10 J/cm^2, section interval of 5 μm), read-out: IC50 2-Photon irradiation (800 nm, 10 J/cm^2)
[12] = dark, 12 h incubation, read-out: IC50 dark
[13] = read-out: IC50 480 nm (10 min, 3.1 J/cm^2), U373, irradiation 480 nm (10 min, 3.1 J/cm^2)
[14] = read-out: IC50 dark, U373, dark, 4 h incubation
[15] = read-out: IC50 540 nm (40 min, 9.5 J/cm^2), CT-26, irradiation 540 nm (40 min, 9.5 J/cm^2)
[16] = read-out: IC50 dark, CT-26, dark, 4 h incubation

| Structure (SMILES) | λem/nm (Emission maximum) [1] [nm] | ϕem (Luminescence Quantum Yield) [2] | Singlet oxygen quantum yield, indirect 450 nm CH3CN [3] [%] | Singlet oxygen quantum yield, indirect 450 nm PBS [3] [%] | Singlet oxygen quantum yield, indirect 540 nm CH3CN [3] [%] | Singlet oxygen quantum yield, indirect 540 nm PBS [3] [%] | PI (480 nm) [4] | PI (540 nm) [4] | IC50 [4, 7] [µM] | IC50 [4, 8] [µM] | IC50 [4, 9] [µM] | IC50 (HeLa MCTS; [10]) [µM] | IC50 (HeLa MCTS; [11]) [µM] | PI (1-Photon) (HeLa MCTS) | PI (2-Photon) (HeLa MCTS) | IC50 (HeLa MCTS; [12]) [µM] | PI (480 nm) [5] | PI (540 nm) [5] | IC50 [5, 13] [µM] | IC50 [5, 14] [µM] | other results |
| --- | --- | --- | --- | --- | --- | --- | --- | --- | --- | --- | --- | --- | --- | --- | --- | --- | --- | --- | --- | --- | --- |
| CN(C)c1ccc(/C=C/c2ccnc(-c3cc(/C=C/c4ccc(N(C)C)cc4)ccn3)c2)cc1.CN(C)c1ccc(/C=C/c2ccnc(-c3cc(/C=C/c4ccc(N(C)C)cc4)ccn3)c2)cc1.F[P-](F)(F)(F)(F)F.F[P-](F)(F)(F)(F)F.[Ru+2].c1ccc(-c2ccccn2)nc1 [Compound 4, [Ru(bipy)((E,E′)-4,4′-Bis[p-(N,N-dimethylamino)styryl]-2,2′-bipyridine)2][PF6]2] | 703 | 0.004 | 40 | 2 | 37 | 3 | >11.8 | >9.4 | > 100 | 8.5 ± 1.2 | 10.6 ± 2.2 | 78.3 ± 5.1 | 63 ± 4.2 | >1.3 | >1.6 | > 100 | >7.0 | >5.3 | 14.3 ± 2.4 | > 100 | PI (480 nm) [6]: >13.7; PI (540 nm) [6]: >10.4; IC50 [6, 15]: 9.6 ± 1.9 µM; IC50 [6, 16]: > 100 µM |
| COc1ccc(/C=C/c2ccnc(-c3cc(/C=C/c4ccc(OC)cc4)ccn3)c2)cc1.COc1ccc(/C=C/c2ccnc(-c3cc(/C=C/c4ccc(OC)cc4)ccn3)c2)cc1.F[P-](F)(F)(F)(F)F.F[P-](F)(F)(F)(F)F.[Ru+2].c1ccc(-c2ccccn2)nc1 [Compound 5, [Ru(bipy)((E,E′)-4,4′-Bis[p-methoxystyryl]-2,2′-bipyridine)2][PF6]2] | 674 | 0.014 | 51 | 8 | 46 | 6 | >16.7 | >12.7 | > 100 | 6.4 ± 1.7 | 7.9 ± 1.3 | 19.3 ± 2.7 | 13.4 ± 3.9 | >5.2 | >7.5 | > 100 | >6.5 | >5.6 | 15.3 ± 2.2 | > 100 | PI (480 nm) [6]: >19.6; PI (540 nm) [6]: >16.1; IC50 [6, 15]: 6.2 ± 1 µM; IC50 [6, 16]: > 100 µM |
| CN(C)c1ccc(/C=C/c2ccnc(-c3cc(/C=C/c4ccc(N(C)C)cc4)ccn3)c2)cc1.F[P-](F)(F)(F)(F)F.F[P-](F)(F)(F)(F)F.[Ru+2].c1ccc(-c2ccccn2)nc1.c1ccc(-c2ccccn2)nc1 [Compound 6, [Ru(bipy)2((E,E′)-4,4′-Bis[p-(N,N-dimethylamino)styryl]-2,2′-bipyridine)][PF6]2] | 697 | 0.005 | 53 | 2 | 38 | 2 | >18.9 | >17.2 | > 100 | 5.3 ± 0.6 | 5.8 ± 0.9 | 33.8 ± 3.4 | 26.5 ± 2.9 | >8.9 | >11.3 | > 300 | >12.0 | >9.3 | 8.3 ± 1.1 | > 100 | PI (480 nm) [6]: >41.7; PI (540 nm) [6]: >32.3; IC50 [6, 15]: 3.1 ± 0.3 µM; IC50 [6, 16]: > 100 µM |
| CN(C)c1ccc(/C=C/c2ccnc(-c3cc(/C=C/c4ccc(N(C)C)cc4)ccn3)c2)cc1.F[P-](F)(F)(F)(F)F.F[P-](F)(F)(F)(F)F.[Ru+2].c1cnc2c(c1)ccc1cccnc12.c1cnc2c(c1)ccc1cccnc12 [Compound 8, [Ru(phen)2((E,E′)-4,4′-Bis[p-(N,N-dimethylamino)styryl]-2,2′-bipyridine)][PF6]2] | 698 | 0.004 | 62 | 3 | 57 | 2 | >7.9 | >8.8 | > 100 | 12.6 ± 1.3 | 11.4 ± 1.5 | 32.6 ± 2.5 | 27.8 ± 3.1 | >9.2 | >10.8 | > 300 | >8.5 | >7.5 | 11.7 ± 1.5 | > 100 | PI (480 nm) [6]: >12.2; PI (540 nm) [6]: >12.8; IC50 [6, 15]: 7.8 ± 0.9 µM; IC50 [6, 16]: > 100 µM |
